# Test results taken from paper PMC10041525, “New Dual Inhibitors of Bacterial Topoisomerases with Broad-Spectrum Antibacterial Activity and In Vivo Efficacy against Vancomycin-Intermediate Staphylococcus aureus” (Journal of Medicinal Chemistry, 2023).
# Where two headings read alike, the source gives them in different places.
# What was measured:
# H. influenzae ATCC 49766 = test: IHMA QC MIC; format: cell-based
# From the text: (§1) Supplement jm2c01905_si_004.xlsx, sheet "QC" | column: MIC [µg/mL]
# H. influenzae ATCC 49247 = test: IHMA QC MIC; format: cell-based; conditions: Haemophilus influenzae, read-out: MIC
# From the text: as §1
# S. pneumoniae ATCC 49619 [1] = test: IHMA QC MIC; format: cell-based
# From the text: as §1
# S. pneumoniae ATCC 49619 [2] = test system: S. pneumoniae ATCC 49619; parameters: method as in earlier work; conditions: QC range for S. pneumoniae ATCC 49619, ref CLSI; cited from earlier work
# A. baumannii ATCC 17978 = test: IHMA QC MIC; format: cell-based; conditions: Acinetobacter baumannii, ATCC17978; read-out: MIC (QC, repeated tests)
# Description: (§2) The panel of Hungarian clinical isolates and controls measured following the same method as detailed above, and albeit measurements were carried out in 384-well microtiter plates (Corning Inc.).
# E. coli ATCC 35218 = test: IHMA QC MIC; format: cell-based; conditions: Escherichia coli, ATCC35218; read-out: MIC (QC, repeated tests)
# Description: as §2
# E. coli ATCC 25922 = test: IHMA QC MIC; format: cell-based; conditions: Escherichia coli
# [3] = test system: 100 A. baumannii strains (50 MDR, 50 non-MDR); test: MIC broth microdilution at IHMA Europe, panel of 100 strains; format: cell-based; conditions: Acinetobacter baumannii, read-out: MIC
structure (smiles),measurement,setting,value
"C[C@@H](O)[C@H]1C(=O)N2C(C(=O)O)=C(SCCNC=N)C[C@H]12 [Imipenem, imipenem]",MIC,"H. influenzae ATCC 49766; Haemophilus influenzae, ATCC49766, QC strain H. influenzae ATCC 49766, test date 2021-11-11, read-out: MIC",0.5 µg/mL
same,MIC,"H. influenzae ATCC 49766; QC strain H. influenzae ATCC 49766, test date 2021-11-26",0.5 µg/mL
same,MIC,"H. influenzae ATCC 49247; ATCC49247, QC strain H. influenzae ATCC 49247, test date 2021-11-11",0.25 µg/mL
same,MIC,"H. influenzae ATCC 49247; ATCC49247, QC strain H. influenzae ATCC 49247, test date 2021-11-26",0.12 µg/mL
same,MIC,"S. pneumoniae ATCC 49619 [1]; QC strain S. pneumoniae ATCC 49619, test date 2021-11-26",0.03 µg/mL
same,MIC,"S. pneumoniae ATCC 49619 [1]; Streptococcus pneumoniae, ATCC49619, QC strain S. pneumoniae ATCC 49619, test date 2021-11-11, read-out: MIC",0.03 µg/mL
same,"MIC, CLSI Range",S. pneumoniae ATCC 49619 [2],"0,03 - 0,12 µg/mL"
same,MIC,A. baumannii ATCC 17978,≤ 0.25 µg/mL
same,MIC,E. coli ATCC 35218,≤ 0.25 µg/mL
same,MIC,"E. coli ATCC 25922; ATCC25922, QC strain E. coli ATCC 25922, test date 2021-11-26, read-out: MIC",0.12 µg/mL
same,MIC,"E. coli ATCC 25922; ATCC25922, read-out: MIC (QC, repeated tests)",≤ 0.25 µg/mL
same,MIC,"[3]; A. baumannii IHMA 1769393, Lithuania 2018, Non-MDR",≤ 0.25 µg/mL
same,MIC,"[3]; A. baumannii IHMA 1769782, Israel 2018, MDR",> 16 µg/mL
same,MIC,"[3]; A. baumannii IHMA 1769910, Israel 2018, Non-MDR",≤ 0.25 µg/mL
same,MIC,"[3]; A. baumannii IHMA 1790317, Czech Republic 2018, Non-MDR",≤ 0.25 µg/mL
same,MIC,"[3]; A. baumannii IHMA 1790916, Romania 2018, Non-MDR",≤ 0.25 µg/mL
same,MIC,"[3]; A. baumannii IHMA 1791877, Israel 2018, MDR",> 16 µg/mL
same,MIC,"[3]; A. baumannii IHMA 1792961, Jordan 2018, MDR",> 16 µg/mL
same,MIC,"[3]; A. baumannii IHMA 1795669, Tunisia 2018, Non-MDR",0.5 µg/mL
same,MIC,"[3]; A. baumannii IHMA 1814276, Lebanon 2018, MDR",> 16 µg/mL
same,MIC,"[3]; A. baumannii IHMA 1815198, Kuwait 2018, MDR",> 16 µg/mL
same,MIC,"[3]; A. baumannii IHMA 1815856, Israel 2018, MDR",> 16 µg/mL
same,MIC,"[3]; A. baumannii IHMA 1821468, South Africa 2018, Non-MDR",0.5 µg/mL
same,MIC,"[3]; A. baumannii IHMA 1829500, Georgia 2018, Non-MDR",≤ 0.25 µg/mL
same,MIC,"[3]; A. baumannii IHMA 1830924, United Kingdom 2018, Non-MDR",≤ 0.25 µg/mL
same,MIC,"[3]; A. baumannii IHMA 1849819, Kuwait 2018, MDR",> 16 µg/mL
same,MIC,"[3]; A. baumannii IHMA 1849829, Kuwait 2018, Non-MDR",≤ 0.25 µg/mL
same,MIC,"[3]; A. baumannii IHMA 1857118, Slovenia 2018, Non-MDR",≤ 0.25 µg/mL
same,MIC,"[3]; A. baumannii IHMA 1863631, France 2018, Non-MDR",≤ 0.25 µg/mL
same,MIC,"[3]; A. baumannii IHMA 1870054, United States 2018, Non-MDR",≤ 0.25 µg/mL
same,MIC,"[3]; A. baumannii IHMA 1884428, Italy 2018, Non-MDR",≤ 0.25 µg/mL
same,MIC,"[3]; A. baumannii IHMA 1884990, Germany 2018, Non-MDR",≤ 0.25 µg/mL
same,MIC,"[3]; A. baumannii IHMA 1900538, Turkey 2018, Non-MDR",≤ 0.25 µg/mL
same,MIC,"[3]; A. baumannii IHMA 1913773, Kenya 2018, Non-MDR",≤ 0.25 µg/mL
same,MIC,"[3]; A. baumannii IHMA 1926285, Qatar 2018, Non-MDR",≤ 0.25 µg/mL
same,MIC,"[3]; A. baumannii IHMA 1926288, Qatar 2018, MDR",> 16 µg/mL
same,MIC,"[3]; A. baumannii IHMA 1957343, Portugal 2019, Non-MDR",≤ 0.25 µg/mL
same,MIC,"[3]; A. baumannii IHMA 1963732, Turkey 2019, MDR",> 16 µg/mL
same,MIC,"[3]; A. baumannii IHMA 1967860, Spain 2019, Non-MDR",≤ 0.25 µg/mL
same,MIC,"[3]; A. baumannii IHMA 1971673, Latvia 2019, MDR",> 16 µg/mL
same,MIC,"[3]; A. baumannii IHMA 1975075, Israel 2019, Non-MDR",≤ 0.25 µg/mL
same,MIC,"[3]; A. baumannii IHMA 1977077, Kuwait 2019, Non-MDR",≤ 0.25 µg/mL
same,MIC,"[3]; A. baumannii IHMA 1983151, Greece 2019, MDR",> 16 µg/mL
same,MIC,"[3]; A. baumannii IHMA 1984665, Lithuania 2019, MDR",> 16 µg/mL
same,MIC,"[3]; A. baumannii IHMA 1986678, Turkey 2019, Non-MDR",0.5 µg/mL
same,MIC,"[3]; A. baumannii IHMA 1986738, Turkey 2019, MDR",> 16 µg/mL
same,MIC,"[3]; A. baumannii IHMA 1987162, Croatia 2019, MDR",> 16 µg/mL
same,MIC,"[3]; A. baumannii IHMA 1993615, Turkey 2019, MDR",> 16 µg/mL
same,MIC,"[3]; A. baumannii IHMA 1994284, Italy 2019, MDR",> 16 µg/mL
same,MIC,"[3]; A. baumannii IHMA 1995161, Czech Republic 2019, Non-MDR",≤ 0.25 µg/mL
same,MIC,"[3]; A. baumannii IHMA 1997936, Morocco 2019, Non-MDR",≤ 0.25 µg/mL
same,MIC,"[3]; A. baumannii IHMA 1999178, Belgium 2019, Non-MDR",≤ 0.25 µg/mL
same,MIC,"[3]; A. baumannii IHMA 2003279, Turkey 2019, MDR",> 16 µg/mL
same,MIC,"[3]; A. baumannii IHMA 2014367, Jordan 2019, Non-MDR",≤ 0.25 µg/mL
same,MIC,"[3]; A. baumannii IHMA 2014931, South Africa 2019, Non-MDR",≤ 0.25 µg/mL
same,MIC,"[3]; A. baumannii IHMA 2019315, Romania 2019, Non-MDR",≤ 0.25 µg/mL
same,MIC,"[3]; A. baumannii IHMA 2020360, Croatia 2019, MDR",> 16 µg/mL
same,MIC,"[3]; A. baumannii IHMA 2031511, Greece 2019, Non-MDR",≤ 0.25 µg/mL
same,MIC,"[3]; A. baumannii IHMA 2031524, Greece 2019, MDR",> 16 µg/mL
same,MIC,"[3]; A. baumannii IHMA 2034657, Tunisia 2019, Non-MDR",≤ 0.25 µg/mL
same,MIC,"[3]; A. baumannii IHMA 2035089, Serbia 2019, MDR",> 16 µg/mL
same,MIC,"[3]; A. baumannii IHMA 2035134, Serbia 2019, Non-MDR",≤ 0.25 µg/mL
same,MIC,"[3]; A. baumannii IHMA 2038976, Hungary 2019, MDR",> 16 µg/mL
same,MIC,"[3]; A. baumannii IHMA 2051503, Serbia 2019, MDR",> 16 µg/mL
same,MIC,"[3]; A. baumannii IHMA 2058329, Slovenia 2019, Non-MDR",≤ 0.25 µg/mL
same,MIC,"[3]; A. baumannii IHMA 2065587, France 2019, Non-MDR",≤ 0.25 µg/mL
